Measurements from patent publication US20230091810A1, “FIRST-IN-CLASS OF SHMT2 AND MTHFD2 INHIBITORS AS ANTITUMOR AGENTS” (Duquesne University of the Holy Spirit, priority 2017, published 2023).

Key:
[1] = target: AICARFTase (Homo sapiens, UniProt P31939); assay: in vitro inhibition of purified AICARFTase (ATIC)
[2] = system: R2 (null) (CHO); assay: proliferation assay, R2 transporter-null CHO cells; assay type: cell-based, Chinese hamster; conditions: Cricetulus griseus, folate-/glycine-free RPMI1640 with 25 nM leucovorin, 96 h, drug 0-1000 nM, read-out: IC50s (SE) R2 (null) (CHO)
Protocol: Proliferation assays were performed with engineered Chinese hamster ovary (CHO) cell lines R2 (transporter-null), PC43-10 (expresses RFC only), RT16 (FRα only), and R2/PCFT4 (PCFT only) cultured in folate-/glycine-free RPMI1640 supplemented with 25 nM leucovorin. Additional results are shown for HCT116 (colon tumor cells (CTC)), IGROV1 (epithelial ovarian cancer (EOC) cells), H460 (non-small cell lung cancer (NSCLC) cells), MIAPaCa-2 (pancreatic cancer (PaC) cells), and HPAC (PaC).
Cell culture and proliferation/protection assays. […]
For proliferation assays with the CHO cell lines, the cells were treated with drugs (0-1 µM) in a 96-well plate (2000 cells/well) in glycine-free, nucleoside-free folate-free RPMI supplemented with 10% dialyzed fetal bovine serum, 1% penicillin/streptomycin, 2 mM L-glutamine, and 25 nM leucovorin (final volume 200 µL) over a 96 h incubation period at 37° C. with 5% CO2. […] To quantify viable cells, the media was removed and plates were washed once with 100 µL Dulbecco’s Phosphate-Buffered Saline (PBS), after which 100 µL PBS and 20 µL Cell Titer-blue (Promega) were added. Relative cell numbers were proportional to the fluorescence measured with a fluorescence plate reader (590 nm emission, 560 nm excitation). […]

Sequence of AICARFTase (P31939 whole entry): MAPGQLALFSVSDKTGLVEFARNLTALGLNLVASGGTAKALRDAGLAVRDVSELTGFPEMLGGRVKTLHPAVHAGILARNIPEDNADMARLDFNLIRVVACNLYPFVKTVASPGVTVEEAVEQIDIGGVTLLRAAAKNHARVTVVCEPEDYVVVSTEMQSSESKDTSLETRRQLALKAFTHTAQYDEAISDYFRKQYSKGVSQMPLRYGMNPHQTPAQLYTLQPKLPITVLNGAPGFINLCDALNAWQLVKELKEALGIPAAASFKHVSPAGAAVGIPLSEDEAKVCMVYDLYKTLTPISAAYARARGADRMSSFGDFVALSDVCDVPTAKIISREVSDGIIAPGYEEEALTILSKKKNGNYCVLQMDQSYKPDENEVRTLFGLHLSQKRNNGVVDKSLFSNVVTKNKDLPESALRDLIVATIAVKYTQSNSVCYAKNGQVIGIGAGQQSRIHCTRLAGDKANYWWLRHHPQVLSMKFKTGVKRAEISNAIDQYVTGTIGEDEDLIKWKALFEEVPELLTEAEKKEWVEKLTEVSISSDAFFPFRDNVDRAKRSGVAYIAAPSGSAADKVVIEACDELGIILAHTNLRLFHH

Nc1nc2ccn(CCCc3ccc(C(=O)N[C@@H](CCC(=O)O)C(=O)O)cc3)c2c(=O)[nH]1 [AGF291]
Ki [1]: 10.9 ± 6.07 µM
IC50 [2]: > 1 µM
